This test deals with HPK1 (Homo sapiens, UniProt Q92918). The experiment in a line: Inhibitory effect against enzyme activity of HPK1 (lantha Screen, PKC substrate). The class given is biochemical. To be noted: class symbols defined as IC50 ranges, read-out: Inhibition rate (%). On the procedure: Example 130: Assay of Inhibitory Effect of Compound Against Enzyme Activity of HPK1
The inhibitory effect of the compound against the enzyme activity of HPK1 was determined by using a lantha Screen method with PKC as a substrate. The process comprises the following specific steps: the HPK1 protein was incubated with the serially-diluted compound at 28° C. for 10 min followed by addition of fluoroescein-labeled PKC substrate and ATP to react for 90 min. After termination of the reaction, a Terbium-labeled antibody against phosphorylated PKC was added and incubated for 60 min. The energy transfer of Teribium and fluoroscein was monitored by detecting luminescence at 520 nm and 450 nm to quantify PKC as the level of phosphorylation of […]. Inhibition % and IC50 of the compound were calculated compared to the control group.

pIC50: −log10 of the molar value. Bounds are passed on as bounds.

HPK1, sequence (Q92918 whole entry): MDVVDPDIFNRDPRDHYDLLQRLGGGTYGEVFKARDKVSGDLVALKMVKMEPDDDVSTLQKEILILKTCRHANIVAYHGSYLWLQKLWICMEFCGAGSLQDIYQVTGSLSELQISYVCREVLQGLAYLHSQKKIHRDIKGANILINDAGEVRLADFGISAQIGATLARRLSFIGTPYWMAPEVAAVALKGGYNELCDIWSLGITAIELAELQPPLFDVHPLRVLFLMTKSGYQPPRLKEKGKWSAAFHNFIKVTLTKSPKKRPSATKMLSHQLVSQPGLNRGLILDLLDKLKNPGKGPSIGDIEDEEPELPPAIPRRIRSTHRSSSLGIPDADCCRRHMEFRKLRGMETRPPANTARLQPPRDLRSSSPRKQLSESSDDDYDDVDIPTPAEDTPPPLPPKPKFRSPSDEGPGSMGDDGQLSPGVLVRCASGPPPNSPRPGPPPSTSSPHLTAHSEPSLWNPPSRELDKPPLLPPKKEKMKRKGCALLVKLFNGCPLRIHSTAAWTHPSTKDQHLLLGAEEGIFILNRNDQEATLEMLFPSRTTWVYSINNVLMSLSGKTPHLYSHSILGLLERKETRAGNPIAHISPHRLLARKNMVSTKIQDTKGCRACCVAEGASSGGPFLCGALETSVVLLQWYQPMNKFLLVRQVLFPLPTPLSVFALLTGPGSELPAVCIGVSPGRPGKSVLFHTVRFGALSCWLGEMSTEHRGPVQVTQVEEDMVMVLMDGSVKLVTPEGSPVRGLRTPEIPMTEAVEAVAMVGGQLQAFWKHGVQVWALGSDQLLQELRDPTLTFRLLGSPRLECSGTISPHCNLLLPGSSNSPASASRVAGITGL

`Cc1cccc(F)c1-c1cc2c(-c3ccc4c(c3)OCC3CN(C)CCN43)n[nH]c2cn1` (centres unmarked) [Compound 65]: the pIC50 was 7.00 to 8.00.

Consider `CN1CCN2c3ccc(-c4n[nH]c5cnc(-c6c(F)cccc6F)cc45)cc3OCC2C1` (centres unmarked) [Compound 66], for which the pIC50 was 7.00 to 8.00.

On to `CNCc1cc(F)c(-c2cc3c(-c4ccc5c(c4)OCC4CN(C)CCN54)n[nH]c3cn2)c(F)c1` (centres unmarked) [Compound 68], for which the pIC50 is not below 8.00.

Regarding `CNCc1cc(C)c(-c2cc3c(-c4ccc5c(c4)OCC4CN(C)CCN54)n[nH]c3cn2)c(F)c1` (centres unmarked) [Compound 69], the pIC50 is not below 8.00.

As to `Cc1ccncc1-c1cc2c(-c3ccc4c(c3)OCC3CN(C)CCN43)n[nH]c2cn1` (centres unmarked) [Compound 70], the pIC50 was not below 8.00.

Consider `COc1ccncc1-c1cc2c(-c3ccc4c(c3)OCC3CN(C)CCN43)n[nH]c2cn1` (centres unmarked) [Compound 71], for which the pIC50 is not below 8.00.

As for `Cc1n[nH]cc1-c1cc2c(-c3ccc4c(c3)OCC3CN(C)CCN43)n[nH]c2cn1` (centres unmarked) [Compound 72], the pIC50 is not below 8.00.

On to `COc1ccc(C#N)c(F)c1-c1cc2c(-c3ccc4c(c3)OCC3CN(C)CCN43)n[nH]c2cn1` (centres unmarked) [Compound 74], for which the pIC50 is 7.00 to 8.00.

In the case of `COc1c(F)ccc(F)c1-c1cc2c(-c3ccc4c(c3)OCC3CN(C)CCN43)n[nH]c2cn1` (centres unmarked) [Compound 75], the pIC50 is 7.00 to 8.00.

`CN1CCN2c3ccc(-c4n[nH]c5cnc(-c6ccc(C(=O)N7CC(N(C)C)C7)cc6)cc45)cc3OCC2C1` (centres unmarked) [Compound 76]: the pIC50 is 7.00 to 8.00.

For `CN1CCN2c3ccc(-c4n[nH]c5cnc(-c6cccn7ccnc67)cc45)cc3OCC2C1` (centres unmarked) [Compound 77], the pIC50 is not below 8.00.

Turning to `CN1CCN2c3ccc(-c4n[nH]c5cnc(-c6cnn7ccccc67)cc45)cc3OCC2C1` (centres unmarked) [Compound 78], the pIC50 is not below 8.00.

`COc1cccc(F)c1-c1ncc2[nH]nc(-c3ccc4c(c3)OCC3CN(C)CCN43)c2n1` (centres unmarked) [Compound 79]: the pIC50 is 7.00 to 8.00.

Consider `CNCc1cc(C)c(-c2ncc3[nH]nc(-c4ccc5c(c4)OCC4CN(C)CCN54)c3n2)c(F)c1` (centres unmarked) [Compound 80], for which the pIC50 was 7.00 to 8.00.

Consider `CNCc1cc(F)c(-c2ncc3[nH]nc(-c4ccc5c(c4)OCC4CN(C)CCN54)c3n2)c(F)c1` (centres unmarked) [Compound 81], for which the pIC50 is 7.00 to 8.00.

For the molecule `COc1cccc(F)c1-c1nc2c(-c3ccc4c(c3)OCC3CN(C)CCN43)n[nH]c2cc1C#N` (centres unmarked) [Compound 82], the pIC50 is 7.00 to 8.00.

Consider `CNCc1cc(C)c(-c2nc3c(-c4ccc5c(c4)OCC4CN(C)CCN54)n[nH]c3cc2C#N)c(F)c1` (centres unmarked) [Compound 83], for which the pIC50 was not below 8.00.

In the case of `CNCc1cc(F)c(-c2nc3c(-c4ccc5c(c4)OCC4CN(C)CCN54)n[nH]c3cc2C#N)c(F)c1` (centres unmarked) [Compound 84], the pIC50 was not below 8.00.

With `COc1cccc(F)c1-c1ccc2[nH]nc(-c3ccc4c(c3)OCC3CN(C)CCN43)c2n1` (centres unmarked) [Compound 85], the pIC50 is 7.00 to 8.00.

Turning to `CNCc1cc(C)c(-c2ccc3[nH]nc(-c4ccc5c(c4)OCC4CN(C)CCN54)c3n2)c(F)c1` (centres unmarked) [Compound 86], the pIC50 is 7.00 to 8.00.

For `CNCc1cc(F)c(-c2ccc3[nH]nc(-c4ccc5c(c4)OCC4CN(C)CCN54)c3n2)c(F)c1` (centres unmarked) [Compound 87], the pIC50 was 7.00 to 8.00.

Regarding `COc1cccc(F)c1-c1cc2c(-c3ccc4c(c3)OCC3CN(C)CCN43)c[nH]c2cn1` (centres unmarked) [Compound 88], the pIC50 is not below 8.00.

For `CNCc1cc(C)c(-c2cc3c(-c4ccc5c(c4)OCC4CN(C)CCN54)c[nH]c3cn2)c(F)c1` (centres unmarked) [Compound 89], the pIC50 was not below 8.00.

For the molecule `CNCc1cc(F)c(-c2cc3c(-c4ccc5c(c4)OCC4CN(C)CCN54)c[nH]c3cn2)c(F)c1` (centres unmarked) [Compound 90], the pIC50 is not below 8.00.

Take `COc1cccc(F)c1-c1cc2c(-c3ccc4c(c3)OCC3CN(C)CCN43)c[nH]c2cc1C#N` (centres unmarked) [Compound 91]: the pIC50 is not below 8.00.

In the case of `CNCc1cc(C)c(-c2cc3c(-c4ccc5c(c4)OCC4CN(C)CCN54)c[nH]c3cc2C#N)c(F)c1` (centres unmarked) [Compound 92], the pIC50 is not below 8.00.

`CNCc1cc(F)c(-c2cc3c(-c4ccc5c(c4)OCC4CN(C)CCN54)c[nH]c3cc2C#N)c(F)c1` (centres unmarked) [Compound 93]: the pIC50 was not below 8.00.

As for `COc1cccc(F)c1-c1ncc2[nH]cc(-c3ccc4c(c3)OCC3CN(C)CCN43)c2n1` (centres unmarked) [Compound 94], the pIC50 is 7.00 to 8.00.

Take `CNCc1cc(C)c(-c2ncc3[nH]cc(-c4ccc5c(c4)OCC4CN(C)CCN54)c3n2)c(F)c1` (centres unmarked) [Compound 95]: the pIC50 was not below 8.00.

As to `CNCc1cc(F)c(-c2ncc3[nH]cc(-c4ccc5c(c4)OCC4CN(C)CCN54)c3n2)c(F)c1` (centres unmarked) [Compound 96], the pIC50 is 7.00 to 8.00.

For `COc1cccc(F)c1-c1nc2c(-c3ccc4c(c3)OCC3CN(C)CCN43)c[nH]c2cc1C#N` (centres unmarked) [Compound 97], the pIC50 is 7.00 to 8.00.

Consider `CNCc1cc(C)c(-c2nc3c(-c4ccc5c(c4)OCC4CN(C)CCN54)c[nH]c3cc2C#N)c(F)c1` (centres unmarked) [Compound 98], for which the pIC50 is not below 8.00.

Consider `CNCc1cc(F)c(-c2nc3c(-c4ccc5c(c4)OCC4CN(C)CCN54)c[nH]c3cc2C#N)c(F)c1` (centres unmarked) [Compound 99], for which the pIC50 was not below 8.00.

`COc1cccc(F)c1-c1ccc2[nH]cc(-c3ccc4c(c3)OCC3CN(C)CCN43)c2n1` (centres unmarked) [Compound 100]: the pIC50 is not below 8.00.

Take `CNCc1cc(C)c(-c2ccc3[nH]cc(-c4ccc5c(c4)OCC4CN(C)CCN54)c3n2)c(F)c1` (centres unmarked) [Compound 101]: the pIC50 is not below 8.00.

As to `CNCc1cc(F)c(-c2ccc3[nH]cc(-c4ccc5c(c4)OCC4CN(C)CCN54)c3n2)c(F)c1` (centres unmarked) [Compound 102], the pIC50 was not below 8.00.

Turning to `CN1CCN2c3ccc(-c4cnc5[nH]cc(-c6ccc(C(=O)N7CC(N(C)C)C7)cc6)c5c4)cc3OCC2C1` (centres unmarked) [Compound 103], the pIC50 is not below 8.00.

With `CN1CCN2c3ccc(-c4cnc5[nH]cc(-c6ccc(C(=O)N7CC(O)C7)cc6)c5c4)cc3OCC2C1` (centres unmarked) [Compound 104], the pIC50 was 7.00 to 8.00.

On to `CN(C)CCN(C)C(=O)c1ccc(-c2c[nH]c3ncc(-c4ccc5c(c4)OCC4CN(C)CCN54)cc23)cc1` (centres unmarked) [Compound 105], for which the pIC50 is not below 8.00.

Take `CN1CCN2c3ccc(-c4cnc5[nH]cc(-c6ccc(C(=O)N7CC8(COC8)C7)cc6)c5c4)cc3OCC2C1` (centres unmarked) [Compound 106]: the pIC50 was not below 8.00.

Consider `CN1CC(CN(C)C(=O)c2ccc(-c3c[nH]c4ncc(-c5ccc6c(c5)OCC5CN(C)CCN65)cc34)cc2)C1` (centres unmarked) [Compound 107], for which the pIC50 was not below 8.00.

On to `CN1CCN2c3ccc(-c4cnc5[nH]cc(-c6ccc(C(=O)C7CNC7)cc6)c5c4)cc3OCC2C1` (centres unmarked) [Compound 108], for which the pIC50 is 7.00 to 8.00.

On to `CN1CCN2c3ccc(-c4cnc5[nH]cc(-c6ccc(OC7CCNCC7)cc6)c5c4)cc3OCC2C1` (centres unmarked) [Compound 109], for which the pIC50 is not below 8.00.

Take `CN(C)CCCOc1ccc(-c2c[nH]c3ncc(-c4ccc5c(c4)OCC4CN(C)CCN54)cc23)cc1` (centres unmarked) [Compound 110]: the pIC50 is not below 8.00.

Consider `CN1CC(C(O)c2ccc(-c3c[nH]c4ncc(-c5ccc6c(c5)OCC5CN(C)CCN65)cc34)cc2)C1` (centres unmarked) [Compound 111], for which the pIC50 is not below 8.00.

With `CN1CCN2c3ccc(-c4cnc5[nH]cc(-c6ccc(C(=O)N7CC(O)C7)cc6)c5n4)cc3OCC2C1` (centres unmarked) [Compound 113], the pIC50 is not below 8.00.

In the case of `CN(C)CCN(C)C(=O)c1ccc(-c2c[nH]c3ncc(-c4ccc5c(c4)OCC4CN(C)CCN54)nc23)cc1` (centres unmarked) [Compound 114], the pIC50 is not below 8.00.

Turning to `CN1CCN2c3ccc(-c4cnc5[nH]nc(-c6ccc(C(=O)N7CC(N(C)C)C7)cc6)c5c4)cc3OCC2C1` (centres unmarked) [Compound 115], the pIC50 is not below 8.00.

Take `CN1CCN2c3ccc(-c4cnc5[nH]nc(-c6ccc(C(=O)N7CC(O)C7)cc6)c5c4)cc3OCC2C1` (centres unmarked) [Compound 116]: the pIC50 was 7.00 to 8.00.

As to `CN(C)CCN(C)C(=O)c1ccc(-c2n[nH]c3ncc(-c4ccc5c(c4)OCC4CN(C)CCN54)cc23)cc1` (centres unmarked) [Compound 117], the pIC50 is not below 8.00.

Turning to `CN1CCN2c3ccc(-c4cnc5[nH]nc(-c6ccc(C(=O)N7CC(N(C)C)C7)cc6)c5n4)cc3OCC2C1` (centres unmarked) [Compound 118], the pIC50 is not below 8.00.

As for `CN1CCN2c3ccc(-c4cnc5[nH]nc(-c6ccc(C(=O)N7CC(O)C7)cc6)c5n4)cc3OCC2C1` (centres unmarked) [Compound 119], the pIC50 is 7.00 to 8.00.

As for `CN(C)CCN(C)C(=O)c1ccc(-c2n[nH]c3ncc(-c4ccc5c(c4)OCC4CN(C)CCN54)nc23)cc1` (centres unmarked) [Compound 120], the pIC50 was not below 8.00.

For `CNCc1cc(C)c(-c2cc3c(-c4ccc5c(c4)NCC4CN(C)CCN54)n[nH]c3cc2C#N)c(F)c1` (centres unmarked) [Compound 121], the pIC50 was not below 8.00.

As for `CNCc1cc(C)c(-c2cc3c(-c4ccc5c(c4)N(C)CC4CN(C)CCN54)n[nH]c3cc2C#N)c(F)c1` (centres unmarked) [Compound 122], the pIC50 is not below 8.00.

For the molecule `CNCc1cc(C)c(-c2cc3c(-c4ccc5c(c4)OCC4CNCCN54)n[nH]c3cc2C#N)c(F)c1` (centres unmarked) [Compound 123], the pIC50 is not below 8.00.

For the molecule `CCN1CCN2c3ccc(-c4n[nH]c5cc(C#N)c(-c6c(C)cc(CNC)cc6F)cc45)cc3OCC2C1` (centres unmarked) [Compound 124], the pIC50 is not below 8.00.

Turning to `CNCc1cc(C)c(-c2cc3c(-c4ccc5c(c4)OCC4CN(C6CC6)CCN54)n[nH]c3cc2C#N)c(F)c1` (centres unmarked) [Compound 125], the pIC50 was not below 8.00.

As for `CNCc1cc(C)c(-c2cc3c(-c4ccc5c(c4)OCC4CN(C6COC6)CCN54)n[nH]c3cc2C#N)c(F)c1` (centres unmarked) [Compound 126], the pIC50 is not below 8.00.

Take `CNCc1cc(C)c(-c2cc3c(-c4ccc5c(c4)OCC4CN(C6CCN(C)CC6)CCN54)n[nH]c3cc2C#N)c(F)c1` (centres unmarked) [Compound 127]: the pIC50 is not below 8.00.

For the molecule `CNCc1cc(C)c(-c2cc3c(-c4ccc5c(c4)OCC4CN(CC(F)(F)F)CCN54)n[nH]c3cc2C#N)c(F)c1` (centres unmarked) [Compound 128], the pIC50 is not below 8.00.

Consider `CNCc1cc(C)c(-c2cc3c(-c4ccc5c(c4)OCC4CN(CCC#N)CCN54)n[nH]c3cc2C#N)c(F)c1` (centres unmarked) [Compound 129], for which the pIC50 is not below 8.00.

(Values after patent US12686689B2, “HPK1 inhibitor, preparation method therefor and use thereof” (WIGEN BIOMEDICINE TECHNOLOGY (SHANGHAI) CO., LTD., priority 2020, dated 2026).)
